Test system: 5-hydroxytryptophan (5-HTP)-induced defecation models of mice
Assay: Effect on 5-hydroxytryptophan (5-HTP)-induced defecation models of mice in vivo
Conditions: male SLC:ICR mice; 30 mg/kg orally, 30 minutes before 10 mg/kg 5-HTP s.c.; stool scored during 30 minutes
Experimental: Effect on 5-hydroxytryptophan (5-HTP)-induced defecation models of mice in vivo:
The tests were conducted by using (R)-3-(2-(2-(4-methylpiperidine-1-yl)-ethyl)pyrrolidine-1-sulfonyl)phenol (synthesized according to a method described in WO 97/48681) known to be a selective 5-HT7 receptor antagonist as test compound 1 by a method of G. J. Sanger et al. (British Journal of Pharmacology, 130: 706-712, 2000).
Male SLC:ICR mice (6 weeks) were placed in a series of 5 stainless steel cages for mice. After the acclimation for one hour or longer, 30 mg/kg of test compound 1 was orally administered to them (n=10). 30 minutes after, 10 mg/5mL/kg of 5-HTP (or 5 mL/kg of physiological saline in a group in which 5-HTP was not used) was subcutaneously administered to the mice . The stool excreted by each mouse during 30 minutes after the administration was observed (the results were scored as follows: 0: normal stool or no defecation, 1: diarrhea or soft stool). The inhibitory rate (%) of test compound 1 was calculated while the score obtained by subtracting the score of the 5-HTP-free group from the score of the 5-HTP group was determined to be 100%.

For `CC1CCN(CC[C@H]2CCCN2S(=O)(=O)c2cccc(O)c2)CC1` [test compound 1, (R)-3-(2-(2-(4-methylpiperidine-1-yl)-ethyl)pyrrolidine-1-sulfonyl)phenol], the “control rate (inhibitory rate of 5-HTP-induced diarrhea/soft stool score)” value was 70%.

Source: patent US20050148632A1, “Therapeutic agent for intestinal diseases and visceral pain” (priority 2002, published 2005)
